Source: ChEMBL document CHEMBL4732086, “Targeting nuclear protein TDP-43 by cell division cycle kinase 7 inhibitors: A new therapeutic approach for amyotrophic lateral sclerosis” (Eur J Med Chem, 2021)
Calls of active or inactive are those of the source. The calls are words filed in the database; no cut-off is given here.

What was measured:
[1] = molecular target: T1, Mitogen-activated protein kinase 13 (Homo sapiens) (UniProt O15264); test: Inhibition of recombinant human full length His-tagged MAPK13 expressed in baculovirus expression system using serine/threonine-03 peptide as substrate at 10 uM incubated for 60 mins in presence of ATP by Z'-LYTE assay
T1 sequence (whole entry): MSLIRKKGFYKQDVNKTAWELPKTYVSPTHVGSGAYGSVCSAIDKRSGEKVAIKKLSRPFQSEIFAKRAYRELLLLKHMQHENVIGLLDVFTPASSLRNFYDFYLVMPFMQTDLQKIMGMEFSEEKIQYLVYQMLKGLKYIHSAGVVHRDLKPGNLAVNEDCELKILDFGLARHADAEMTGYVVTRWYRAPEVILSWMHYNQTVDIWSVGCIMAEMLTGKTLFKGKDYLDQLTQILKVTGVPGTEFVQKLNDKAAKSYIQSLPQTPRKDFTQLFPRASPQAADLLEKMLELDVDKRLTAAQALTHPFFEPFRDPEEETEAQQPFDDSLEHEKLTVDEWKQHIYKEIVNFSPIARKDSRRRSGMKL

[2] = molecular target: Receptor-type tyrosine-protein kinase FLT3 (Homo sapiens) (UniProt P36888); test: Inhibition of recombinant human His-tagged Flt3 expressed in baculovirus expression system using Tyr 02 peptide as substrate at 10 uM incubated for 60 mins in presence of ATP by Z'-LYTE assay
Sequence of Receptor-type tyrosine-protein kinase FLT3 (Homo sapiens) (P36888 whole entry): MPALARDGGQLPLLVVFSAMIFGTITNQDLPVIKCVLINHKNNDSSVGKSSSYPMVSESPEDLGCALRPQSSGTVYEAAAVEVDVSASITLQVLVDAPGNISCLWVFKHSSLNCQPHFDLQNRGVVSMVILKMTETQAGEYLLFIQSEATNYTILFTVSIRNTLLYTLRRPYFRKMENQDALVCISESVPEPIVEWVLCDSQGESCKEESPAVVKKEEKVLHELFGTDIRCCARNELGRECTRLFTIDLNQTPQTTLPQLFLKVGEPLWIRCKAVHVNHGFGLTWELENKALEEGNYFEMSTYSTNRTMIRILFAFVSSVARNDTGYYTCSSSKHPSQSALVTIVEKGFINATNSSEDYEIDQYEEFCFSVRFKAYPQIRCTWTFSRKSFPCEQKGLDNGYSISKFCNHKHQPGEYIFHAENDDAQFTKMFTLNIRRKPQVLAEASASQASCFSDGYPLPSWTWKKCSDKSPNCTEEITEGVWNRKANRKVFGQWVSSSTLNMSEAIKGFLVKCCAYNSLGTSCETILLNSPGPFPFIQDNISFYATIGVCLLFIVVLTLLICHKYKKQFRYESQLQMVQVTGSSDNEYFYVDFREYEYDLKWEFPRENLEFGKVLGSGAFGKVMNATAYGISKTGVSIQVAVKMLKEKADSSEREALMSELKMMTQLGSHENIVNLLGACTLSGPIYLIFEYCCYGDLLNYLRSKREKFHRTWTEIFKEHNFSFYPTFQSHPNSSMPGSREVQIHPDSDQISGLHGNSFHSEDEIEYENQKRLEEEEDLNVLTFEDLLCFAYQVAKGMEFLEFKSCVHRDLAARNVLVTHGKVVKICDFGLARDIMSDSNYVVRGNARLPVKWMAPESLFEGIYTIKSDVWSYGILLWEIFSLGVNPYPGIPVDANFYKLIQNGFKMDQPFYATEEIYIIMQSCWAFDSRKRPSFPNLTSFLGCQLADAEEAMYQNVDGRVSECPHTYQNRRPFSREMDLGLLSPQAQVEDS

[3] = molecular target: T2, Tyrosine-protein kinase JAK3 (Homo sapiens) (UniProt P52333); test: Inhibition of recombinant human GST-tagged JAK3 expressed in baculovirus expression system using Tyr-06 peptide as substrate at 10 uM incubated for 60 mins in presence of ATP by Z'-LYTE assay
T2 sequence (whole entry): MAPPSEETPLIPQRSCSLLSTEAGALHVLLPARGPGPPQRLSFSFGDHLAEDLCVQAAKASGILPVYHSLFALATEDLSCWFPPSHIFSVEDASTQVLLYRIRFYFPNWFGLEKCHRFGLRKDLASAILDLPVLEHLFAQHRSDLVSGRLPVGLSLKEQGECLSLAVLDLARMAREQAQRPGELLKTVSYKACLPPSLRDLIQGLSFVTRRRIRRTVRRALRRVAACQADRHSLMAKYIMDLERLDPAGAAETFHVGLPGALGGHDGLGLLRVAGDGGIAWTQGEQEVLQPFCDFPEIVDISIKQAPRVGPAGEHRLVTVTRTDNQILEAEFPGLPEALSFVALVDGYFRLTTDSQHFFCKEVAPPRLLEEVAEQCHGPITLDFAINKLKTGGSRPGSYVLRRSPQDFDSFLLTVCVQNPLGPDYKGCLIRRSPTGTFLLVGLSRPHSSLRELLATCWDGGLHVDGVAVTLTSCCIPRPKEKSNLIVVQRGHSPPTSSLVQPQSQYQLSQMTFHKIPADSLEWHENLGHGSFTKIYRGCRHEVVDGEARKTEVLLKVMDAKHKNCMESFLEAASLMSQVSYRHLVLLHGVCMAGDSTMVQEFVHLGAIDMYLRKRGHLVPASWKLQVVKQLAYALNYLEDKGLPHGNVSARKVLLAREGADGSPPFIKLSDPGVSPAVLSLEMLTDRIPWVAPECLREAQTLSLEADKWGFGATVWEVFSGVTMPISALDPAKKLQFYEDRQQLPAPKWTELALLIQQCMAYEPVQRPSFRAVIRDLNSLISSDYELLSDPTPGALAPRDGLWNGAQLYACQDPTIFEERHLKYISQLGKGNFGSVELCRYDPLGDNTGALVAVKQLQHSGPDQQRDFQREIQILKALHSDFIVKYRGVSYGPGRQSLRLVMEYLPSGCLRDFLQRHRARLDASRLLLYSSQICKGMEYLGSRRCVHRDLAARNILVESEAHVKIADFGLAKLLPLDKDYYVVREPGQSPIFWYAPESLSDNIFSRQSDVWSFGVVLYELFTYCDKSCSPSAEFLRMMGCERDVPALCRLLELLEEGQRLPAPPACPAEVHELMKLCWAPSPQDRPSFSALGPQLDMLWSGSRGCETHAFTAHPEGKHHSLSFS

[4] = molecular target: Mitogen-activated protein kinase 3 (Homo sapiens) (UniProt P27361); test: Inhibition of recombinant human full length GST-tagged MAPK3 expressed in Escherichia coli expression system using serine/threonine-03 peptide as substrate at 10 uM by Z'-LYTE assay; details: time 60.0 min
Sequence of Mitogen-activated protein kinase 3 (Homo sapiens) (P27361 whole entry): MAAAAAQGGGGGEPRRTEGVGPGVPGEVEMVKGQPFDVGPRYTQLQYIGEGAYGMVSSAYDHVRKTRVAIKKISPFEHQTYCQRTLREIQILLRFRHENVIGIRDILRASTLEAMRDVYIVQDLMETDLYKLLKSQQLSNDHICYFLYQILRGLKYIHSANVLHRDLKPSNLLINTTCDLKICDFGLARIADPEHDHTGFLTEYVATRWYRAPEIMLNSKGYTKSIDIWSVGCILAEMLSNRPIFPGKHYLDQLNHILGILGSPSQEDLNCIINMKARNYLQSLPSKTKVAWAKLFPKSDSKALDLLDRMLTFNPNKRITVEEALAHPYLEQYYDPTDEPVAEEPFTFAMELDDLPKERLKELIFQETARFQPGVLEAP

[5] = molecular target: Tyrosine-protein kinase JAK2 (Homo sapiens) (UniProt O60674); test: Inhibition of recombinant human GST-tagged JAK2 expressed in baculovirus expression system using Tyr-06 peptide as substrate at 10 uM incubated for 60 mins in presence of ATP by Z'-LYTE assay
Sequence of Tyrosine-protein kinase JAK2 (Homo sapiens) (O60674 whole entry): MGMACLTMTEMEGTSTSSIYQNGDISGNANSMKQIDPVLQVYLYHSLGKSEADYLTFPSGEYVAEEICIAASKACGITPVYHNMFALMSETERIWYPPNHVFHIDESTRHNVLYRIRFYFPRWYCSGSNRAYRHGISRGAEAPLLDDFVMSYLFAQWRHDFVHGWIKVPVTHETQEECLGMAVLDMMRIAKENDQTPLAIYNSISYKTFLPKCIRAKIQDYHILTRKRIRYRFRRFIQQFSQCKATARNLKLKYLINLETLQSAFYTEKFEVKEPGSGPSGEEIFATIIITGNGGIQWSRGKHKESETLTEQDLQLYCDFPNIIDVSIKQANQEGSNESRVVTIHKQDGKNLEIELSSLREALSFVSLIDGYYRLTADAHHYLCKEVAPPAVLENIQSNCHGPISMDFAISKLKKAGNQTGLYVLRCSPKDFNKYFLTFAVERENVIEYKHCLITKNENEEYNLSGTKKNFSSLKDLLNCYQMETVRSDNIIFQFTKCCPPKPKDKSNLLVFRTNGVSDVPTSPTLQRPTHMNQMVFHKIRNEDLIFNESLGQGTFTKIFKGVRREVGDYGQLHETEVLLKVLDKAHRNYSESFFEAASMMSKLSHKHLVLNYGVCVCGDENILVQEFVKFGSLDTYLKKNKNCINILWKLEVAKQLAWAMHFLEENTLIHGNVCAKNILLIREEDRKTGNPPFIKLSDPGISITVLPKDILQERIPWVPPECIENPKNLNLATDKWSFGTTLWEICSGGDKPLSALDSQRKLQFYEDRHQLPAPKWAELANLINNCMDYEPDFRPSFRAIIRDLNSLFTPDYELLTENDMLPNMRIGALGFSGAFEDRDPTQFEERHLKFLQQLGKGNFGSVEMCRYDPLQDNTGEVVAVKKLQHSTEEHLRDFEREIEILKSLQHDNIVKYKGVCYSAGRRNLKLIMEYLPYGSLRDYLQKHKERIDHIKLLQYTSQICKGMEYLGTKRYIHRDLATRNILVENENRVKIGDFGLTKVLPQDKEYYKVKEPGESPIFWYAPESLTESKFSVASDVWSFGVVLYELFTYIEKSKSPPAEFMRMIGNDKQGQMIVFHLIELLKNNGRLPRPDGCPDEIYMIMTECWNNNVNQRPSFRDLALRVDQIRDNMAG

[6] = molecular target: Cyclin-dependent kinase 5/CDK5 activator 1 (Homo sapiens) (UniProt Q00535+Q15078); test: Inhibition of recombinant full length human GST/His-tagged CDK5/p35 using serine/threonine-12 peptide as substrate at 10 uM incubated for 60 mins in presence of ATP by Z'-LYTE assay; type: protein-complex assay
Sequence of Cyclin-dependent kinase 5/CDK5 activator 1 (Homo sapiens) (Q00535 whole entry): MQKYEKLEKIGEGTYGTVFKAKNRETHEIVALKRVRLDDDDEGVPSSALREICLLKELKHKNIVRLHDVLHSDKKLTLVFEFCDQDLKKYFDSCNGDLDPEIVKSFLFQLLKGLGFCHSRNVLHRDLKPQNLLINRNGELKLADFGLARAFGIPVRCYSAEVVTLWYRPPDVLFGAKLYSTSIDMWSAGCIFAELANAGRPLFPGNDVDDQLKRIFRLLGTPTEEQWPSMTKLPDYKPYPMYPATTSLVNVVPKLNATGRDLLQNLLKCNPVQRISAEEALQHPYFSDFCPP
Sequence of Cyclin-dependent kinase 5/CDK5 activator 1 (Homo sapiens) (Q15078 99-307 partner limits assumed): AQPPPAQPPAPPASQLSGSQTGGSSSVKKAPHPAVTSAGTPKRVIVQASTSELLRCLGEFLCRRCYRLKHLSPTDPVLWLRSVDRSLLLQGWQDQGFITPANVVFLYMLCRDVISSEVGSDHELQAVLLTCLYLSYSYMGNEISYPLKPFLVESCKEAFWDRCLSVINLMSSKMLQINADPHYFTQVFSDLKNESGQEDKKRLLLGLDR

SH-SY5Y = test: Neuroprotective activity in human SH-SY5Y cells assessed as decrease in ethacrynic acid-induced TDP-43 phosphorylation preincubated for 1 hr followed by incubation with ethacrynic acid for 24 hrs measured at 10 uM by Western blot assay; type: functional, cell-based
Homo sapiens = species on record: Homo sapiens; test: Inhibition of recombinant full length human His-tagged CDK1/CyclinB expressed in baculovirus expression system using serine/threonine-18 peptide as substrate at 10 uM incubated for 60 mins in presence of ATP by Z'-LYTE assay
[7] = molecular target: T3, Dual specificity tyrosine-phosphorylation-regulated kinase 3 (Homo sapiens) (UniProt O43781); test: Inhibition of recombinant human full length GST-tagged DYRK3 expressed in baculovirus expression system using serine/threonine-18 peptide as substrate at 10 uM incubated for 60 mins in presence of ATP by Z'-LYTE assay
T3 sequence (whole entry): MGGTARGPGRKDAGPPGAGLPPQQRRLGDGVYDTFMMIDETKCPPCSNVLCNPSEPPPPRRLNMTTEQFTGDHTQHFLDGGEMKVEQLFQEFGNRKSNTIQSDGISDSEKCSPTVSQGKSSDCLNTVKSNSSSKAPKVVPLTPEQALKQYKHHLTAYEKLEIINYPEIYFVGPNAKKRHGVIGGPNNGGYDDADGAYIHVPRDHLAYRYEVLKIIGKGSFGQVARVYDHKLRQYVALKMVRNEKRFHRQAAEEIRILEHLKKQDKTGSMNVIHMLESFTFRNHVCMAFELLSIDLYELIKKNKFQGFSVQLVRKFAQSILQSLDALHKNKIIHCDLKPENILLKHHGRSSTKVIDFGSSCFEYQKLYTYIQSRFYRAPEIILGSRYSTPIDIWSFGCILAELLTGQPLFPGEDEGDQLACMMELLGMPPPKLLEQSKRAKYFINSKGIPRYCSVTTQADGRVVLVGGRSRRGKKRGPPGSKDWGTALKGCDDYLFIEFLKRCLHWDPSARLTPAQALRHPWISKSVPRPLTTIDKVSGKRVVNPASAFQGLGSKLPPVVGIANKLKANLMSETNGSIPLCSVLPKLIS

SMILES | inhibition [1] | inhibition [2] | inhibition [3] | inhibition [4] | inhibition [5] | inhibition [6] | Activity (SH-SY5Y) | inhibition (Homo sapiens) | inhibition [7]
Clc1cccc(CSc2ncnc3[nH]cnc23)c1 | inactive | inactive | inactive | inactive | inactive | inactive | Active | inactive | inactive
c1ccc(CSc2ncnc3[nH]cnc23)cc1 | inactive | inactive | inactive | inactive | inactive | inactive | Active | inactive | inactive
Brc1ccccc1CSc1ncnc2[nH]cnc12 | inactive | inactive | inactive | inactive | inactive | inactive | Active | inactive | inactive
